This is an account of results in paper PMC8228600, “Design, Synthesis, In Vitro and In Vivo Evaluation of Heterobivalent SiFAlin-Modified Peptidic Radioligands Targeting Both Integrin αvβ3 and the MC1 Receptor—Suitable for the Specific Visualization of Melanomas?” (Pharmaceuticals, 2021).

Like-named read-outs stand apart in the source and are kept apart here.

One may read the tissue uptake as the percentage of the injected dose found per gram of tissue.

A short description of series [1]: Ex vivo biodistribution: uptake in B16F10 tumors and tumor-to-organ ratios. Also on record: species or system nude mice (Balb/cAnNRj-Foxn1nu/nu). As to conditions: male, Balb/cAnNRj-Foxn1nu/nu (nude), mouse, iv, total radioactivity; for tissue uptake: B16F10 tumor (MC1R-positive); for tissue uptake / tissue uptake at 1.5 h: ex vivo after PET/CT scan, i.v., n = 3; for tissue to tissue ratio: ex vivo biodistribution, mean (n = 3) ± SD; for tissue uptake at 1.5 h: B16F10 tumor. As to the method: (§1) For the evaluation of the in vivo pharmacokinetics, the two most promising HBPLs—[^18F]2 with the highest affinity to both target receptors and [^18F]4 with the highest hydrophilicity and still reasonable binding affinities—were selected. For PET/CT imaging, 6-week-old male nude mice (Balb/cAnNRj-Foxn1^nu/nu) were subcutaneously injected with 5 × 10^5 B16F10 cells into the right flank and 2.0–2.5 × 10^6 U87MG cells into the left flank to generate the respective receptor-positive tumors. When the tumors reached a sufficient size for imaging, each mouse was administered 4.15 ± 2.28 MBq of [^18F]2 or 3.95 ± 2.06 MBq of [^18F]4 via the lateral tail vein under isoflurane anesthesia. To determine the receptor specificity of both peptide parts of the labeled HBPLs and their relative contribution to overall tumor uptake, blocking experiments were also performed. […] After i.v. injection of the tracers, a dynamic PET scan, followed by a CT scan, was performed. The resulting PET/CT images and time–activity curves (TACs) are depicted in Figure 6, Figure 7 and Figure 8. After completion of the diagnostic scans, the mice were sacrificed, their organs (blood, spleen, liver, kidney, pancreas, lung, heart, brain, bone, muscle, tail, tumors, stomach, colon and small intestine) were collected and measured in a γ-counter for ex vivo biodistribution (see Supplementary Materials Table S1 for detailed results).
(§2) Each male nude mouse (six weeks old) was injected subcutaneously with 5 × 10^5 B16F10 cells into the right flank and 2.0–2.5 × 10^6 U87MG cells into the left flank. The health status and tumor growth of the mice were monitored regularly until the animals could be examined after 15–21 days, depending on the tumor size. For the in vivo experiments, the ^18F-radiolabeled compound was diluted in 0.9% saline to give a final EtOH concentration of <10%. Each mouse was injected with 4.15 ± 2.28 MBq of [^18F]2 or 3.95 ± 2.06 MBq of [^18F]4 via the lateral tail vein under isoflurane anesthesia. […] Each ^18F-labeled compound was studied with or without blocking in at least three mice. Mice were measured under isoflurane anesthesia in a small PET/SPECT/CT animal imaging system. First, a dynamic PET scan was performed over 90 min and the scan was framed in 29 timeframes (10 × 1 min, 10 × 2 min, 6 × 5 min, 3 × 10 min). Images were reconstructed using 12 iterations, a maximum likelihood expectation maximization (MLEM) algorithm including corrections for scattered radiation and decay and a voxel size of 0.5 mm. All PET scans were immediately followed by CT acquisition at a voltage of 45 kV and a current of 400 μA. The images were reconstructed using the filtered back projection (FBP) algorithm with a voxel size of 250 μm. The analysis of the data, including the generation of TACs of the kidneys, liver and tumors and the MIPs, was performed via PMOD (v3.8). For ex vivo biodistribution, the mice were sacrificed directly after the PET/CT scan. Organs (blood, spleen, liver, kidneys, pancreas, lungs, heart, brain, bone, muscle, tail, tumors, stomach, colon and small intestine) were collected, weighed and their radioactivity measured in a γ-counter. The percentage injected dose per gram (% ID/g) of each tissue was calculated from the determined values, organ weights, reference values and injected activity.

The subject of series [2] is MC1R-positive B16F10 tumors. Described as above. Particulars: NDP blocking (20 μg coinjected); ex vivo after PET/CT scan; i.v.; n = 3. Set-up: species or system nude mice (Balb/cAnNRj-Foxn1nu/nu). On the procedure: as §1, §2
Where [3] appears, read: NDP blocking (20 μg coinjected).
[4] abbreviates: c(RGDyK) blocking (200 μg coinjected).
[5] abbreviates: double blocking (NDP + c(RGDyK)).
Where [6] appears, read: B16F10 tumor / blood, without blocking, read-out: tumor/blood ratio, B16F10.
Where [7] appears, read: B16F10 tumor / kidneys, without blocking, read-out: tumor/kidneys ratio, B16F10.
[8] abbreviates: B16F10 tumor / liver, without blocking, read-out: tumor/liver ratio, B16F10.
Setting [9] is: B16F10 tumor / muscle, without blocking, read-out: tumor/muscle ratio, B16F10.

For the molecule `CCCC[C@H](NC(=O)CNC(=O)CNC(=O)CCOCCOCCOCCOCCC(=O)NCCCN(CCCNC(=O)CCOCCOCCOCCOCCC(=O)NCCCC[C@@H]1NC(=O)[C@@H](Cc2ccccc2)NC(=O)[C@H](CC(=O)O)NC(=O)CNC(=O)[C@H](CCCNC(=N)N)NC1=O)CC(=O)N[C@@H](CCCCNC(=O)CCC[N+](C)(C)Cc1ccc([Si](F)(C(C)(C)C)C(C)(C)C)cc1)C(N)=O)C(=O)N[C@H]1CC(=O)NCCCC[C@@H](C(N)=O)NC(=O)[C@H](Cc2c[nH]c3ccccc23)NC(=O)[C@H](CCCNC(=N)N)NC(=O)[C@@H](Cc2ccccc2)NC(=O)[C@H](Cc2c[nH]cn2)NC1=O` [[^18F]2], the tissue uptake in series [1] (setting [3]) worked out at 1.83 ± 0.24 %ID/g; in series [1] (setting [4]), 1.98 ± 0.18 %ID/g; in series [1] (setting [5]), 1.14 ± 0.42 %ID/g; in series [1] (without blocking), 2.32 ± 0.49 %ID/g. Further, the tissue to tissue ratio in series [1] (setting [6]) came out at 2.42 ± 0.73; in series [1] (setting [7]) it was 0.19 ± 0.1; in series [1] (setting [8]) it was 0.16 ± 0.11; in series [1] (setting [9]) it was 0.68 ± 0.41. Further, in series [1] (without blocking), the tissue uptake at 1.5 h was 2.32 ± 0.49 %ID/g. Further, the “ID/g, B16F10 tumor” value in series [2] is reported as 1.83 ± 0.24 % ID/g.
In the case of `CCCC[C@H](NC(=O)CNC(=O)CNC(=O)CCOCCOCCOCCOCCOCCOCCOCCOCCOCCC(=O)NCCCN(CCCNC(=O)CCOCCOCCOCCOCCOCCOCCOCCOCCOCCC(=O)NCCCC[C@@H]1NC(=O)[C@@H](Cc2ccccc2)NC(=O)[C@H](CC(=O)O)NC(=O)CNC(=O)[C@H](CCCNC(=N)N)NC1=O)CC(=O)N[C@@H](CCCCNC(=O)CCC[N+](C)(C)Cc1ccc([Si](F)(C(C)(C)C)C(C)(C)C)cc1)C(N)=O)C(=O)N[C@H]1CC(=O)NCCCC[C@@H](C(N)=O)NC(=O)[C@H](Cc2c[nH]c3ccccc23)NC(=O)[C@H](CCCNC(=N)N)NC(=O)[C@@H](Cc2ccccc2)NC(=O)[C@H](Cc2c[nH]cn2)NC1=O` [[^18F]4], the tissue uptake is 1.33 ± 0.27 %ID/g in series [1] (setting [3]), 2.29 ± 0.24 %ID/g in series [1] (setting [4]), 2.49 ± 0.09 %ID/g in series [1] (setting [5]) and 2.58 ± 0.86 %ID/g in series [1] (without blocking). Besides, the tissue to tissue ratio in series [1] (setting [6]) is 4.36 ± 1.37; in series [1] (setting [7]), 0.38 ± 0.24; in series [1] (setting [8]) it was 0.36 ± 0.23; in series [1] (setting [9]), 38.6 ± 9.24. Moreover, in series [1] (without blocking), the tissue uptake at 1.5 h turned out to be 2.58 ± 0.86 %ID/g. Further, the “ID/g, B16F10 tumor” value in series [2] is 1.33 ± 0.27 % ID/g.
